Data set [1] deals with small-cell lung cancer (SCLC). The following applies: cited from earlier work.
Data set [2] concerns pro-apoptotic effects of other chemotherapeutic agents. The following applies: cited from earlier work.
The subject of another data set is lymphoid malignancies. The note with it: cited from earlier work.
Data set [3] in a line: stability in an oxidative environment. The class given is physicochemical.

Structures are written as SMILES.

In the case of `CN(C)CC[C@H](CSc1ccccc1)Nc1ccc(S(=O)(=O)NC(=O)c2ccc(N3CCN(Cc4ccccc4-c4ccc(Cl)cc4)CC3)cc2)cc1[N+](=O)[O-]` [ABT-737, N-(4-(4-((4′-chloro-(1,1′-biphenyl)-2-yl)methyl)piperazin-1-yl)benzoyl)-4-(((1R)-3-(dimethylamino)-1-((phenylsulfanyl)methyl)propyl)amino)-3-nitrobenzene-sulfonamide], the single-agent activity result (in data set [1]; in the data set on lymphoid malignancies) was “single-agent activity” in each case. Moreover, the “potentiation of pro-apoptotic effects of other chemotherapeutic agents” value in data set [2] was “potentiates”.
As for `CC1(C)CCC(c2ccc(Cl)cc2)=C(CN2CCN(c3ccc(C(=O)NS(=O)(=O)c4ccc(N[C@H](CCN5CCOCC5)CSc5ccccc5)c(S(=O)(=O)C(F)(F)F)c4)cc3)CC2)C1` [ABT-263], in data set [3], the “degradation in an oxidative environment” value is given as “susceptible to degradation”.

Source of the values: patent US8362013B2, “Salt of ABT-263 and solid-state forms thereof” (AbbVie Inc., priority 2009, dated 2013).
